Laboratory results reported in PMC2981508 (Science (New York, N.Y.), 2009).

Tests used:
VCaP cells [1] = test: VCaP apoptosis; type: cell-based, human; settings: 10 μM, 1 or 3 days, PARP cleavage
[2] = tested on: AR recruitment to PSA enhancer and TMPRSS2 enhancer in LNCaP/AR cells; test: Chromatin immunoprecipitation of AR in LNCaP/AR cells; type: cell-based, human
[3] = tested on: AR target genes PSA and TMPRSS2 in LNCaP/AR cells; test: qRT-PCR of AR-dependent genes in LNCaP/AR cells; type: cell-based, human; settings: androgen-depleted media 5% CSS, 8 hours, 1 and 10 μM
LNCaP/AR tumors = test: LNCaP/AR xenograft model of CRPC in castrate male mice
serum PSA = test: Phase I/II clinical trial in men with CRPC; type: in vivo, human
[4] = tested on: PSA and TMPRSS2 in parental LNCaP cells; test: Antagonism of R1881 induction of PSA and TMPRSS2 in parental LNCaP cells; type: cell-based, human
[5] = tested on: AR recruitment to PSA enhancer and TMPRSS2 enhancer in parental LNCaP cells; test: Chromatin immunoprecipitation of AR in parental LNCaP cells; type: cell-based, human
VCaP cells [6] = test: VCaP cell proliferation; type: cell-based, human; settings: 1 and 10 μM, media containing FBS
[7] = tested on: DU145 human prostate cancer cells; test: Growth of AR-negative DU145 cells in vitro; type: cell-based
VP16-AR fusion protein = type: cell-based; settings: Cos-7 cells, 24 hours
AR = settings: cited from earlier work
[8] = Plasma levels in LNCaP/AR tumor-bearing mice; settings: 10 mg/kg oral daily, 20 hours after the final dose on day 28
[9] = tested on: DU145 prostate cancer xenografts; test: AR-negative DU145 prostate cancer xenografts; parameters: species or system mice; settings: mouse, in vivo

CNC(=O)c1ccc(N2C(=S)N(c3ccc(C#N)c(C(F)(F)F)c3)C(=O)C2(C)C)cc1F [MDV3100]
Apoptosis in VCaP cells (VCaP cells [1]): induced apoptosis
AR recruitment to PSA enhancer and TMPRSS2 enhancer [2]: Neither RD162 nor MDV3100 recruited AR
Expression of AR target genes PSA and TMPRSS2 (agonist activity) [3]: do not have agonist activity
Tumor responses (LNCaP/AR tumors; MDV3100 treatment (fig. S5)): Tumor responses were also observed
Patients with sustained decline in serum PSA levels for at least 12 weeks (of 30) (serum PSA; 30 mg or 60 mg daily oral): Twenty-two
Tolerability (serum PSA; 30 mg or 60 mg daily oral): well tolerated
patients remaining on study longer than 25 weeks (of 30) (serum PSA; 30 mg or 60 mg daily oral): 11 patients
Percent of patients with sustained declines (by >50 percent) in serum PSA (serum PSA; first 30 patients): 43%
Antagonism of induction of PSA and TMPRSS2 by R1881 [4]: antagonized induction
AR recruitment to PSA enhancer and TMPRSS2 enhancer [5]: Neither RD162 nor MDV3100 recruited AR
Growth of VCaP cells (VCaP cells [6]): suppressed growth
Growth suppression in AR-negative DU145 cells [7]: not observed

C[C@]1(O)CC[C@H]2[C@@H]3CCC4=CC(=O)CCC4=C3C=C[C@@]21C [R1881, reference compound]
Activation of VP16-AR (VP16-AR fusion protein): activated VP16-AR
AR recruitment to PSA enhancer and TMPRSS2 enhancer [2]: promoted AR recruitment
AR recruitment to PSA enhancer and TMPRSS2 enhancer [5]: only R1881 promoted recruitment

CC1(C)C(=O)N(c2ccc(C#N)c(C(F)(F)F)c2)C(=S)N1CCCCO [RU59063]
affinity for AR, fold reduced compared to testosterone (AR): 3 fold

CC(O)(CS(=O)(=O)c1ccc(F)cc1)C(=O)Nc1ccc(C#N)c(C(F)(F)F)c1 (stereo not drawn) [bicalutamide, reference compound]
AR recruitment to PSA enhancer and TMPRSS2 enhancer [2]: promoted AR recruitment
Expression of AR target genes PSA and TMPRSS2 (agonist activity) [3]: induced
Tumors progressed on treatment (of 12) (LNCaP/AR tumors; 10 mg/kg oral daily, 28 days): seven tumors
Tumors regressed (12 tumors per group) (LNCaP/AR tumors; 10 mg/kg oral daily, 28 days): one tumor regressed by 50%
Tumors with stable disease (of 12) (LNCaP/AR tumors; 10 mg/kg oral daily, 28 days): four tumors
increase in tumor volume of progressing tumors (LNCaP/AR tumors; 10 mg/kg oral daily, 28 days): up to 5 fold
Median time to tumor progression (LNCaP/AR tumors; continual 10 mg/kg oral daily treatment): 35 days
Plasma levels (mean) [8]: 40 µM
Plasma levels in all mice [8]: exceeded 25 μM
AR recruitment to PSA enhancer and TMPRSS2 enhancer [5]: only R1881 promoted recruitment
growth of AR-negative DU145 xenografts [9]: neither bicalutamide nor RD162 impaired the growth
